Measurements as given in paper PMC12686243, “Synthesis and preclinical evaluation of FAP-targeting radiotracers for PET and optical imaging” (EJNMMI Radiopharmacy and Chemistry, 2025).
Where two headings read alike, the source gives them in different places.

Biological target: T1, hFAP (hFAP-HT1080 cells) (Homo sapiens, UniProt Q12884)
T1 construct: expressed in transfected cells; host or cells: HT1080 (human fibrosarcoma), lentiviral transduction
T1 sequence (Q12884 1-760): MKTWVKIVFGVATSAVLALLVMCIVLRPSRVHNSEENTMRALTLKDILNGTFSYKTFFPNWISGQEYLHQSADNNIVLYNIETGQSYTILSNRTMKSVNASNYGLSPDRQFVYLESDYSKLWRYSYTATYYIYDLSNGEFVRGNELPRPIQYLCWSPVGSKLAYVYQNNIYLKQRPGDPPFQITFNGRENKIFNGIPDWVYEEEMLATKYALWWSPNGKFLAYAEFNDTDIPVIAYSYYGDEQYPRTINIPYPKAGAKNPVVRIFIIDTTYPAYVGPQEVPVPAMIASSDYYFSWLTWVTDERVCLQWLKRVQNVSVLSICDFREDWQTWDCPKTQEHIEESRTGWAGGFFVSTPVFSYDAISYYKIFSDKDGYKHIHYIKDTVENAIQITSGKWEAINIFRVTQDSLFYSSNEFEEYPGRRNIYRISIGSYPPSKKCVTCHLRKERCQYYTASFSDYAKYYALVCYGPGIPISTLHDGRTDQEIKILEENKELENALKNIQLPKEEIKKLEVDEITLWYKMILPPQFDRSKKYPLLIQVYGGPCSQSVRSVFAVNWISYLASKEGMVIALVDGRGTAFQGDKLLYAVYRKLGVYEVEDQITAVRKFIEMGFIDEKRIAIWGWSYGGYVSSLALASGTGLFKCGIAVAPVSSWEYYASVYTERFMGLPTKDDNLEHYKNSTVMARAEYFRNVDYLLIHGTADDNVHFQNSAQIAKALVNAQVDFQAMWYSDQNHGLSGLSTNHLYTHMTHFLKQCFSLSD
Test: saturation binding to hFAP-HT1080 cells
Settings: 60 min, 37 °C
Method: Saturation binding (n ≥ 3, in triplicates) was performed to estimate thermodynamic dissociation constants (KD) and number of binding sites (Bmax). hFAP-HT1080 were cultured under the conditions described above. On the day of the experiment, 48-well plates were kept at 37 °C in an incubation chamber. The medium was replaced with 200 µL CO2-independent medium, (Gibco #18045088, ThermoFisher Germany) for total binding (TB) conditions. For the assessment of nonspecific binding (NSB), the same medium was used, containing 14 µM of FAPI-04 (in DMSO, resulting in 0.007% v/v). After 15 min preincubation for TB/NSB, 200 µL of each eight serial 1:1 dilutions (75 to 0.12 nM) of the respective radioligand were added (in triplicate), resulting in a final concentration per well of 35–0.06 nM. Cells were incubated with the respective radioligand for 60 min at 37 °C. The incubation medium was discarded and the wells washed with ice-cold PBS (2x ~ 30 s). The cells were then lysed with 500 µL 0.1 M NaOH + 1% SDS. For radioactivity detection, 400 µL of lysate was measured in a gamma counter (Perkin Elmer Wizard 1480). Additionally, binding to polystyrene in absence of cells was determined in 400 µL of lysate, along with the activity of all dilutions (50 µL). However, intrinsic plastic adherence of both compounds was very low. All counts were decay-corrected to a reference time (end of radiolabeling). Protein content was determined in an additional plate, subjected to the same conditions (pre-incubation, incubation and washing) by BCA assay and a mean value (µg/mL) used for this particular dataset (all replicate plates). From CPM measurements, final values (pmol/mg protein) were calculated using mean protein content and molar activity. Similarly, lysates from a random plate were subjected to fluorescent detection. For that purpose, 100 µL were pipetted bubble free into a transparent bottom 96 well imaging plate (Greiner Bio-One, µclear #655087). The plate was then imaged on a Typhoon 9500 bio imager (GE, USA) using either the Cy5 or IR-long filter-set (350–500 PMT voltage). From these images, fluorescence density (counts/mm^2) was determined (Bio-Rad, Quantity One 4.6.8). All processed data was then subjected to non-linear iterative curve fitting (GraphPad Prism 10) to yield Bmax (in pmol/mg protein or CNT/mm^2) and KD (in nM).

[1] = n = 1, read-out: KD, fluorescent label detection, best fit
[2] = nonspecific binding with 14 µM FAPI-04, n = 3
[3] = nonspecific binding with 14 µM FAPI-04, n = 3, read-out: KD, radioactive label detection, best fit

SMILES	Bmax, fluorescent label detection, best fit (n = 1)	Kd [1]	Bmax, radioactive label detection, best fit [2]	Kd [3]
CN(CCCN1CCN(C(=O)[C@H](CCCCNC(=O)CC[C@H](C(=O)[O-])N2CCN(CC(=O)[O-])CCN(CC(=O)[O-])CC2)NC(=O)CCOCCOCCOCCOCCNC(=O)CCCCCN2C(=CC=C3CCCC(C=CC4=[N+](CCCCS(=O)(=O)[O-])c5ccc(S(=O)(=O)O)cc5C4(C)C)=C3Oc3ccc(S(=O)(=O)O)cc3)C(C)(C)c3cc(S(=O)(=O)O)ccc32)CC1)c1ccc2nccc(C(=O)NCC(=O)N3CC(F)(F)C[C@H]3C#N)c2c1.[68Ga+3] [[^68Ga]Ga-NODAGA-FAP800]	5.7 * 10^5 AU	1.24 nM	1.41 pmol/mg/protein	1.65 nM
CN(CCCN1CCN(C(=O)[C@H](CCCCNC(=O)CC[C@H](C(=O)[O-])N2CCN(CC(=O)[O-])CCN(CC(=O)[O-])CC2)NC(=O)CCOCCOCCOCCOCCNC(=O)CCCCC[N+]2=C(C=CC=CC=C3N(CCCS(=O)(=O)O)c4ccc(S(=O)(=O)O)cc4C3(C)C)C(C)(CCCS(=O)(=O)O)c3cc(S(=O)(=O)[O-])ccc32)CC1)c1ccc2nccc(C(=O)NCC(=O)N3CC(F)(F)C[C@H]3C#N)c2c1.[68Ga+3] (some centres unmarked) [[^68Ga]Ga-NODAGA-FAP647]	4.8 * 10^5 AU	0.76 nM	1.63 pmol/mg/protein	0.99 nM
